Laboratory results: the NIST ThermoML archive (doi:10.1021/je400917j)

Test: xn = mol fraction of the nth substance listed
Conditions: 101 kPa, Liquid; for mass density: Vibrating tube method

CCCCC(C)O (configuration not stated) [2-hexanol] + CC(=O)N(C)C
Conditions | mass density, 298.15 K [kg/m3] | mass density, 303.15 K [kg/m3] | mass density, 308.15 K [kg/m3] | mass density, 313.15 K [kg/m3] | viscosity, 298.15 K [mPa·s] | viscosity, 303.15 K [mPa·s] | viscosity, 308.15 K [mPa·s] | viscosity, 313.15 K [mPa·s]
x2 = 0 | 810.1 | 806.1 | 802.1 | 798 | 4.1 | 3.41 | 2.82 | 2.22
x2 = 0.0817 | 816.9 | 812.8 | 808.6 | 804.3 | 3.46 | 2.89 | 2.42 | 1.8
x2 = 0.1606 | 824 | 819.7 | 815.4 | 810.9 | 2.87 | 2.41 | 2.05 | 1.52
x2 = 0.2405 | 831.5 | 827.1 | 822.7 | 818.1 | 2.35 | 2 | 1.76 | 1.33
x2 = 0.3506 | 842.9 | 838.3 | 833.8 | 829 | 1.82 | 1.58 | 1.44 | 1.15
x2 = 0.4404 | 852.9 | 848.2 | 843.6 | 838.8 | 1.54 | 1.35 | 1.25 | 1.04
x2 = 0.5601 | 867.5 | 862.8 | 858.1 | 853.3 | 1.29 | 1.16 | 1.06 | 0.92
x2 = 0.6505 | 879.6 | 874.8 | 870.1 | 865.4 | 1.14 | 1.03 | 0.94 | 0.85
x2 = 0.7405 | 892.6 | 887.8 | 883.2 | 878.4 | 1.03 | 0.95 | 0.87 | 0.8
x2 = 0.8504 | 909.9 | 905.2 | 900.7 | 896.2 | 0.97 | 0.9 | 0.82 | 0.77
x2 = 0.9405 | 925.4 | 920.8 | 916.5 | 912.2 | 0.95 | 0.882 | 0.81 | 0.756

CC(=O)N(C)C [N,N-dimethylethanamide] + CC(C)O
Conditions | mass density, 298.15 K [kg/m3] | mass density, 303.15 K [kg/m3] | mass density, 308.15 K [kg/m3] | mass density, 313.15 K [kg/m3] | viscosity, 298.15 K [mPa·s] | viscosity, 303.15 K [mPa·s] | viscosity, 308.15 K [mPa·s] | viscosity, 313.15 K [mPa·s]
x1 = 0.081 | 796.1 | 791.8 | 787.4 | 782.8 | 1.68 | 1.53 | 1.39 | 1.22
x1 = 0.16 | 810.3 | 806 | 801.6 | 797 | 1.47 | 1.32 | 1.23 | 1.1
x1 = 0.2399 | 824.2 | 819.9 | 815.4 | 810.9 | 1.33 | 1.19 | 1.11 | 1
x1 = 0.3499 | 842.7 | 838.2 | 833.8 | 829.2 | 1.21 | 1.08 | 1.01 | 0.92
x1 = 0.4399 | 857.1 | 852.7 | 848.2 | 842.9 | 1.13 | 1.03 | 0.96 | 0.87
x1 = 0.5598 | 875.6 | 871.1 | 866.7 | 862.2 | 1.06 | 0.97 | 0.91 | 0.82
x1 = 0.6496 | 888.9 | 884.4 | 880 | 875.6 | 1.02 | 0.94 | 0.88 | 0.8
x1 = 0.7394 | 901.7 | 897.2 | 892.8 | 888.5 | 0.99 | 0.92 | 0.86 | 0.78
x1 = 0.8495 | 916.8 | 912.4 | 908 | 903.7 | 0.97 | 0.9 | 0.84 | 0.76
x1 = 0.9399 | 928.8 | 924.3 | 920 | 915.6 | 0.95 | 0.89 | 0.823 | 0.75
x1 = 1 | 936.5 | 932 | 927.8 | 923.5 | 0.94 | 0.87 | 0.82 | 0.75

CCCCCC(C)O (configuration not stated) [2-heptanol] + CC(=O)N(C)C
Conditions | mass density, 298.15 K [kg/m3] | mass density, 303.15 K [kg/m3] | mass density, 308.15 K [kg/m3] | mass density, 313.15 K [kg/m3] | viscosity, 298.15 K [mPa·s] | viscosity, 303.15 K [mPa·s] | viscosity, 308.15 K [mPa·s] | viscosity, 313.15 K [mPa·s]
x2 = 0 | 813.2 | 809.5 | 805.7 | 801.5 | 5.3 | 4.48 | 3.68 | 2.96
x2 = 0.0806 | 819 | 814.8 | 810.8 | 806.5 | 4.53 | 3.75 | 2.99 | 2.51
x2 = 0.1595 | 825 | 820.7 | 816.5 | 812.1 | 3.77 | 3.17 | 2.54 | 2.13
x2 = 0.2394 | 831.6 | 827.1 | 822.7 | 818.1 | 3.11 | 2.6 | 2.18 | 1.82
x2 = 0.3495 | 841.7 | 837.1 | 832.6 | 827.7 | 2.46 | 2.08 | 1.78 | 1.48
x2 = 0.4393 | 850.8 | 846.2 | 841.5 | 836.6 | 2.07 | 1.775 | 1.54 | 1.28
x2 = 0.559 | 864.7 | 859.9 | 855.1 | 850.2 | 1.65 | 1.436 | 1.26 | 1.06
x2 = 0.6494 | 876.4 | 871.7 | 866.8 | 861.9 | 1.41 | 1.219 | 1.08 | 0.95
x2 = 0.7393 | 889.4 | 884.7 | 879.9 | 875.1 | 1.2 | 1.09 | 0.98 | 0.87
x2 = 0.8494 | 907.5 | 902.8 | 898.1 | 893.4 | 1.06 | 0.97 | 0.88 | 0.8
x2 = 0.9393 | 924.2 | 919.7 | 915.3 | 910.8 | 0.98 | 0.906 | 0.82 | 0.76

CCCC(C)O (configuration not stated) [pentan-2-ol] + CC(=O)N(C)C
Conditions | mass density, 298.15 K [kg/m3] | mass density, 303.15 K [kg/m3] | mass density, 308.15 K [kg/m3] | mass density, 313.15 K [kg/m3] | viscosity, 298.15 K [mPa·s] | viscosity, 303.15 K [mPa·s] | viscosity, 308.15 K [mPa·s] | viscosity, 313.15 K [mPa·s]
x2 = 0 | 805.4 | 800.9 | 796.9 | 792.6 | 3.5 | 2.83 | 2.35 | 1.98
x2 = 0.0811 | 813.4 | 809 | 804.9 | 800.3 | 2.87 | 2.42 | 2.08 | 1.75
x2 = 0.16 | 821.8 | 817.3 | 813 | 808.2 | 2.35 | 2.01 | 1.8 | 1.52
x2 = 0.2399 | 830.7 | 826 | 821.6 | 816.6 | 1.93 | 1.69 | 1.57 | 1.33
x2 = 0.35 | 843.5 | 838.7 | 834.1 | 828.9 | 1.52 | 1.38 | 1.29 | 1.13
x2 = 0.4398 | 854.5 | 849.6 | 845 | 839.6 | 1.3 | 1.21 | 1.14 | 1.01
x2 = 0.5595 | 870.1 | 865 | 860.4 | 854.9 | 1.13 | 1.07 | 0.99 | 0.89
x2 = 0.6499 | 882.5 | 877.5 | 872.8 | 867.4 | 1.05 | 0.99 | 0.91 | 0.83
x2 = 0.7398 | 895.4 | 890.4 | 885.8 | 880.5 | 0.99 | 0.93 | 0.86 | 0.793
x2 = 0.8499 | 912.1 | 907.3 | 902.8 | 897.8 | 0.95 | 0.89 | 0.82 | 0.761
x2 = 0.9398 | 926.5 | 921.9 | 917.5 | 913 | 0.938 | 0.878 | 0.804 | 0.752
